We go through two molecules from patent US20230101022A1, “GINSENOSIDE M1 AS A MODULATOR OF A[…] AND ITS USE FOR TREATING DISEASES OR […] SYMPTOMS CAUSED BY CORONAVIRUS” (priority 2020, published 2023).

In data set [1] the test system is ACE. The data set can be described thus: IHC of ACE in the renal tissue of mice (infusion model). In kind it is in vivo. The note with it: C57BL/6 mice infused saline or Ang II, 20 mg/kg oral daily for 14 days, IHC (FIG. 4). How it is done:
(§1) A total of twenty C57BL/6 mice (male, 10 weeks old) were maintained with rodent chow and water at will. Subcutaneous implantation of a 1002 osmotic minipump was performed at the dorsum of the neck for Ang II (1.5 mg/kg) or normal saline infusion animals were assigned to four groups: Saline group (5 mice, infused with normal saline and orally administered 0.5% CMC-Na); Ang II group (5 mice, infused with Ang II and orally administered 0.5% CMC-Na); Saline+Ginsenoside M1 group (5 mice, infused with normal saline and orally administered 20 mg·kg−1·d−1 Ginsenoside M1); Ang II +Ginsenoside M1 group (5 mice, infused with Ang II and orally administered 20 mg/kg Ginsenoside M1). Ginsenoside M1 or placebo administration was performed daily for 14 days, followed by animal sacrifice and blood and renal tissue sample collection. The renal tissue specimens underwent fixation with 4% formalin (histopathology) or were snap-frozen with liquid nitrogen and kept at −80° C. (RT-qPCR and ELISA).
(§2) ACE and ACE2 primary antibodies were produced by Bioss Antibodies. Peroxidase-linked goat anti-rabbit secondary antibodies and the DAB and two-step rabbit IHC kits were provided by ZSGB-BIO. IHC was carried out as proposed by ZSGB-BIO.

Data set [2] concerns Ang II and Ang-(1-7) levels in the renal tissue. In words: Ang II and Ang-(1-7) level assessment in the renal tissue of SHR/WKY rats (ELISA). In kind it is in vivo, rat. As to conditions: 20 mg/kg oral once daily for 42 days, ELISA (FIG. 1). The protocol: (§3) A total of 20 Wistar-Kyoto rats (WKY) and 20 SHR (male, 16˜17 weeks old) animals were grouped into four: WKY group (8 WKY, orally administered 0.5% CMC-Na); SHR group (8 SHR, orally administered 0.5% CMC-Na); WKY+Ginsenoside M1 group (8 WKY, orally administered 20 mg/kgGinsenoside M1); SHR +Ginsenoside M1 group (8 SHR, orally administered 20 mg/kg Ginsenoside M1). Ginsenoside M1 or placebo administration was carried out once daily for 42 days is was followed by animal sacrifice and blood and renal tissue sample collection. The renal tissue specimens underwent fixation with 4% formalin (histopathology) or were snap-frozen with liquid nitrogen and kept at −80° C. for reverse transcription quantitative real-time polymerase chain reaction (RT-qPCR) and enzyme-linked immunosorbent assay (ELISA).
(§4) The supernatants of renal specimens were prepared as follows. A total of 100 mg of the renal tissue was homogenized in 900 μL of ice-cold normal saline and submitted to centrifugation (1000 g, 4° C. for 15 min). The resulting supernatants were kept at −80° C. until analysis with Ang II and Ang-(1-7) ELISA kits, respectively, in accordance with the manufacturer's protocols.
In general terms: An ELISA detects its analyte on a solid surface through an enzyme-linked reagent.

The test system is the same in data set [3]. The data set can be described thus: Ang II and Ang-(1-7) level assessment in the renal tissue of mice infused Ang II (ELISA). In kind it is in vivo. As to conditions: C57BL/6 mice infused Ang II, 20 mg/kg oral daily for 14 days, ELISA (FIG. 3), vs Ang II group. How it is done: as §1, §4
Data set [4] relates to ACE. The data set can be described thus: IHC of ACE in the renal tissue of SHR/WKY rats. In kind it is in vivo, rat. The note with it: either WKY or SHR, 20 mg/kg oral once daily for 42 days, IHC (FIG. 2). The protocol: as §3, §2
Data set [5] concerns ACE2. In words: IHC of ACE2 in the renal tissue of mice (infusion model). Format: in vivo. As to conditions: C57BL/6 mice infused Ang II, 20 mg/kg oral daily for 14 days, IHC (FIG. 4), vs the other three groups. The protocol: as §1, §2
The test system of data set [6] is ACE2. The data set can be described thus: IHC of ACE2 in the renal tissue of SHR/WKY rats. Format: in vivo, rat. The note with it: SHR, 20 mg/kg oral once daily for 42 days, IHC (FIG. 2). How it is done:
as §3, §2

For data set [7], the system named is bleomycin-induced lung fibrosis. The data set can be described thus: Bleomycin-induced lung alveolitis and fibrosis in mice (Szapiel scoring). Format: in vivo. How it is done:
The animals were randomly divided into 5 groups as: (1) Saline group: 0.9% saline (200 μL) injection via the tail vein; (2) ACE2 group: a single intraperitoneal injection of ACE2 (0.2 mg/kg); (3) BLM group: a single injection of bleomycin at 150 mg/kg via the tail vein; and (4) BLM+ACE2 group: an injection of bleomycin at 150 mg/kg via the tail vein, followed by an intraperitoneal injection of ACE2 at 0.2 mg/kg. (5) BLM+ACE2+M1 group: an injection of bleomycin at 150 mg/kg via the tail vein, followed by an intraperitoneal injection of 0.2 mg/kg ACE2 and 60mg/kg M1. After administration, ten animals randomly selected from each group were euthanized on days 7, 14 and 28 by cervical dislocation.
Administration of bleomycin is a well-characterized model of pulmonary alveolitis or fibrosis in mice. The fibrotic changes in the lungs were determined using the Szapiel scoring method, higher score indicating greater disease condition. […] On day 28, in the BLM group, alveolitis spontaneously resolved; however, derangement of the alveolar architecture continued, and fibrosis persisted, characterized by diffuse, dense, thick collagen bundles and fibroblast foci.

The mark [8] stands for this setting: day 14, bleomycin 150 mg/kg tail vein, ACE2 0.2 mg/kg i.p.

With `CC(C)=CCC[C@](C)(O[C@@H]1O[C@H](CO)[C@@H](O)[C@H](O)[C@H]1O)[C@H]1CC[C@]2(C)[C@@H]1[C@H](O)C[C@@H]1[C@@]3(C)CC[C@H](O)C(C)(C)[C@@H]3CC[C@]12C` [Ginsenoside M1, 20-O-β-D-glucopyranosyl-20(S)-protopanaxadiol], the “ACE expression in the renal tissue” value in the data set on ACE [1] is listed as “no marked differences”; with ACE [4], “no significant effect”. Further, the “Ang II levels in the renal tissue” value in data set [2] (SHR, vs SHR group) is on record as “significantly reduced”; in data set [2] (WKY) it was “limited effects”; in data set [3], “attenuate this increase significantly”. In data set [2] (SHR, vs SHR group), the “Ang-(1-7) amounts in the renal tissue” value is listed as “significantly higher values compared with the SHR group”. The “Ang-(1-7) levels in the renal tissue” value in data set [3] is on record as “significant increase compared with the Ang II group”. Also, the “ACE2 expression levels in the renal tissue” value in the data set with ACE2 [5] is reported as “markedly elevated”. The “ACE2 amounts in the renal tissue” value in the data set with ACE2 [6] was “further upregulate”.

B1: ACE2: recombinant mouse ACE2 (angiotensin-converting enzyme 2) given by intraperitoneal injection (protein, UniProt Q8R0I0 18-805, looked up)
Angiotensin-converting enzyme …: QSLTEENAKTFLNNFNQEAEDLSYQSSLASWNYNTNITEENAQKMSEAAAKWSAFYEEQSKTAQSFSLQEIQTPIIKRQLQALQQSGSSALSADKNKQLNTILNTMSTIYSTGKVCNPKNPQECLLLEPGLDEIMATSTDYNSRLWAWEGWRAEVGKQLRPLYEEYVVLKNEMARANNYNDYGDYWRGDYEAEGADGYNYNRNQLIEDVERTFAEIKPLYEHLHAYVRRKLMDTYPSYISPTGCLPAHLLGDMWGRFWTNLYPLTVPFAQKPNIDVTDAMMNQGWDAERIFQEAEKFFVSVGLPHMTQGFWANSMLTEPADGRKVVCHPTAWDLGHGDFRIKMCTKVTMDNFLTAHHEMGHIQYDMAYARQPFLLRNGANEGFHEAVGEIMSLSAATPKHLKSIGLLPSDFQEDSETEINFLLKQALTIVGTLPFTYMLEKWRWMVFRGEIPKEQWMKKWWEMKREIVGVVEPLPHDETYCDPASLFHVSNDYSFIRYYTRTIYQFQFQEALCQAAKYNGSLHKCDISNSTEAGQKLLKMLSLGNSEPWTKALENVVGARNMDVKPLLNYFQPLFDWLKEQNRNSFVGWNTEWSPYADQSIKVRISLKSALGANAYEWTNNEMFLFRSSVAYAMRKYFSIIKNQTVPFLEEDVRVSDLKPRVSFYFFVTSPQNVSDVIPRSEVEDAIRMSRGRINDVFGLNDNSLEFLGIHPTLEPPYQPPVTIWLIIFGVVMALVVVGIIILIVTGIKGRKKKNETKREENPYDSMDIGKGESNAGFQNSDDAQTSF
With B1, the “Signs of alveolitis or fibrosis without bleomycin” value in data set [7] (ACE2 group: single i.p. injection 0.2 mg/kg, no bleomycin, days 7, 14 and 28) is reported as “No signs of alveolitis or fibrosis”. In addition, in data set [7] (day 7, bleomycin 150 mg/kg tail vein, ACE2 0.2 mg/kg i.p.), the “Pathological changes in the lung (alveolitis)” value was “did not significantly alter”. In addition, in data set [7] (setting [8]), the “Alveolitis (Szapiel scoring)” value is “significantly attenuated” and the “Fibrosis (Szapiel scoring)” value is “significantly attenuated”. Moreover, the “Alveolitis (Szapiel scoring)” value in data set [7] (day 28, bleomycin 150 mg/kg tail vein, ACE2 0.2 mg/kg i.p., with or without M1 60 mg/kg) is “only mild to moderate alveolitis”.
